Data on 33 compounds can be found in US9233086B2 (THE REGENTS OF THE UNIVERSITY OF MICHIGAN, priority 2010, dated 2016).

Where two headings read alike, the source gives them in different places. Where a SMILES comes first, the peptide text is derived from it. [ ]: non-standard residue; d: D form. The star is where a group is joined. Isovaleryl = CC(C)CC(=O)*; Isobutyryl = CC(C)C(=O)*; Deg = CCC(N)(CC)C(=O)O; NHBn = c1ccc(CN*)cc1; Butyryl = CCCC(=O)*; Bz = O=C(c1ccccc1)*

The target in the assay is WDR5 (Homo sapiens (Human), UniProt P61964). Briefly: FP based competitive binding assay to WDR5. How it is done:
Another aspect of the invention is development of a Fluorescent Polarization (FP) based competitive binding assay. […] Next, the millipolarization (mP) values were measured at different time points in order to determine equilibrium duration and stability.
Accordingly, the optimal protein concentrations for the competitive assay was investigated.
All the FP based experiments were performed in MICROFLUOR® 2 Black, “U” Bottom, 96-well Microtiter Plates (ThermoSci.) and FP was measured as mP units in a microplate reader (Tecan Ultra) with excitation at 485 nm and emission at 530 nm. The Kd of the tracers and the IC50 value of the inhibitors were calculated using GraphPad Prism 4 software.
The binding affinities of the synthetic peptides shown in the study were measured using this competitive binding assay. A pre-incubated complex solution of WDR5Δ23 and the tracer in 120 μl assay buffer were added to dilutions of the test compound in 5 μl DMSO, giving final concentrations of WDR5Δ23 and the tracer of 4 nM and 0.6 nM, respectively. […] The plates were incubated with shaking at room temperature. The mP values were measured after five hours of incubation and Ki values were calculated using the equation described previously(31).

[1] abbreviates: read-out: Binding Affinity to WDR5 (IC50 ± SD), Table 5 peptidomimetics.
[2] abbreviates: 4 nM WDR5Δ23, 0.6 nM 10mer-Thr-FAM tracer, Ki calculated by equation of ref. 31, read-out: Ki ± SD.
Setting [3] is: 4 nM WDR5Δ23, 0.6 nM 10mer-Thr-FAM tracer, read-out: IC50 ± SD.

The IC50 is the point on the concentration scale where inhibition reaches its midpoint. As a reminder, the Ki is the equilibrium dissociation constant of an inhibitor or competing ligand from its target.

For the compound `CC(=O)NC1(C(=O)N[C@@H](CCCNC(=N)N)C(=O)N[C@H](C(N)=O)C(C)C)CCCCC1` [Compound 4D], the IC50 under setting [1] is below 1000 nM.
On the same count and under the same terms, for `CCC(CC)(NC(=O)c1ccccc1)C(=O)N[C@@H](CCCNC(=N)N)C(=O)NC1(C(N)=O)CCCC1` [Compound 10E] the value was above 1000 nM.
Still for that read-out and setting: the result for `CC(=O)NC1(C(=O)N[C@@H](CCCNC(=N)N)C(=O)NC2(C(N)=O)CCCC2)CCC1` [Compound 6E] reads below 1000 nM; that for `CC(C)CC(=O)N[C@@H](C)C(=O)N[C@@H](CCCNC(=N)N)C(=O)N[C@@H](C)C(N)=O` [Compound 9B] (Isovaleryl-Ala-Arg-Ala-NH2), above 10000 nM; that for `CC[C@H](NC(=O)[C@H](CCCNC(=N)N)NC(=O)C1(NC(C)=O)CCC1)C(N)=O` [Compound 6D], below 1000 nM.
Consider `CC(=O)N[C@@H](C)C(=O)N[C@@H](CCCNC(=N)N)C(=O)N[C@@H](C)C(N)=O` [Ac-3mer, Ac-ARA-NH2] (Ac-Ala-Arg-Ala-NH2), for which the inhibitory constant (Ki) under setting [2] is 120 ± 10 nM. Besides, the IC50 under setting [3] turned out to be 540 ± 30 nM.
Consider `CCC(CC)(NC(=O)C(C)C)C(=O)N[C@@H](CCCNC(=N)N)C(=O)NC(C(C)C)C(C)C` [Compound 11J], for which, under setting [1], the half-maximal inhibitory concentration (IC50) is below 10000 nM.
On to `C[C@H](N)C(=O)N[C@@H](CCCNC(=N)N)C(=O)N[C@H](C(=O)N[C@@H](CCCCN)C(=O)N[C@@H](CCC(N)=O)C(=O)N[C@H](C(=O)N[C@@H](C)C(=O)N[C@@H](CCCNC(=N)N)C(=O)N[C@@H](CCCCN)C(=O)N[C@@H](CO)C(N)=O)[C@@H](C)O)[C@@H](C)O` [Compound H3-10mer, reference compound], for which the Ki (4 nM WDR5Δ23, 0.6 nM 10mer-Thr-FAM tracer, Ki calculated by equation of ref. 31, listed as wild-type H3 peptide, read-out: Ki ± SD) is 15000 nM. Also, the IC50 under setting [3] was found to be 70000 ± 6000 nM.
Take `CCC(CC)(NC(=O)c1ccccc1)C(=O)N[C@H](CCCNC(=N)N)C(=O)NC1(C(N)=O)CCCC1` [Compound 10F]: the IC50 under setting [1] was above 5000 nM.
As for `CC(=O)N[C@@H](C)C(=O)N[C@@H](CCCNC(=N)N)C(=O)N[C@@H](C)C(=O)N[C@@H](CCC(=O)O)C(=O)N[C@H](C(=O)N[C@@H](Cc1c[nH]cn1)C(=O)N[C@@H](CC(C)C)C(=O)N[C@@H](CCCNC(=N)N)C(=O)N[C@@H](CCCCN)C(=O)N[C@@H](CO)C(N)=O)C(C)C` [Ac-10mer], the concentration for half-maximal inhibition (IC50) under setting [3] was determined as 20 ± 4 nM. Further, the “times more potent than the WIN peptide” value (Ki ratio vs WIN) came out at 50. Further, the Ki (read-out: Ki) was found to be 3 nM.
For the compound `CC(=O)N[C@H](C(=O)N[C@@H](CCCNC(=N)N)C(=O)NC1(C(N)=O)CCC1)C(C)C` [Compound 5B], the IC50 under setting [1] is below 10000 nM.
On the same count and under the same terms, for `CCC(CC)(NC(=O)C(C)C)C(=O)N[C@@H](CCCNC(=N)N)C(=O)NC1(C(N)=O)CCCC1` [Compound 10C] the value was below 1000 nM.
For the compound `COC(=O)[C@H](C)NC(=O)[C@H](CCCNC(=N)N)NC(=O)[C@H](C)NC(C)=O` [Δ2c, Ac-ARA-COOCH3] (Ac-Ala-Arg-Ala-OMe), the Ki under setting [2] was 1600 ± 200 nM. For the same compound, the IC50 under setting [3] came out at 7300 ± 800 nM. For the setting “ratio vs Ac-3mer”, the “times less potent than Ac-3mer” value is 10.
As for Ac-ARAEV-NH2 [Ac-5mer, Ac-ARAEV-NH2], the half-maximal inhibitory concentration (IC50) (read-out: IC50 ± SD) stood at 750 ± 100 nM. The Ki (read-out: Ki ± SD) is 160 ± 30 nM.
In the case of `CCC(CC)(NC(=O)C(C)C)C(=O)N[C@@H](CCCNC(=N)N)C(=O)NC1CCCCC1` [Compound 11E], the concentration for half-maximal inhibition (IC50) under setting [1] was below 10000 nM.
Consider `CC(=O)N[C@@H](C)C(=O)N[C@@H](CCCCN)C(=O)N[C@@H](C)C(N)=O` [Compound 2C] (Ac-Ala-Lys-Ala-NH2), for which the IC50 under setting [1] is above 1000 nM.
For Ac-SARAEVHLRKS-NH2 [Ac-11mer], the inhibition constant (Ki) under setting [2] was 200 ± 30 nM. In addition, the IC50 under setting [3] is 1040 ± 140 nM.
Take `CCC(CC)(NC(=O)C(C)C)C(=O)N[C@@H](CCCNC(=N)N)C(=O)NC1CCCC1` [Compound 11I]: the half-inhibitory concentration (IC50) under setting [1] was below 10000 nM.
With `CCC(CC)(NC(=O)C(C)C)C(=O)N[C@@H](CCCNC(=N)N)C(=O)NCc1ccccc1` [Compound 11D] (Isobutyryl-[Deg]-Arg-NHBn), the concentration for half-maximal inhibition (IC50) under setting [1] was below 30000 nM.
On the same count and under the same terms, for `CC(=O)N[C@H](C(=O)N[C@@H](CCCNC(=N)N)C(=O)NC1(C(N)=O)CC1)C(C)C` [Compound 5A] the value was below 10000 nM.
Consider `CC(=O)N[C@@H](C)C(=O)N[C@@H](CCCNC(=N)N)C(N)=O` [Ac-2mer, Ac-AR-NH2] (Ac-Ala-Arg-NH2), for which, under setting [2], the inhibition constant Ki was 27000 ± 1400 nM. Also, the half-inhibitory concentration (IC50) under setting [3] worked out at 125000 ± 6000 nM.
As to `C[C@H](NC(=O)[C@H](CCCNC(=N)N)NC(=O)[C@H](C)NC(=O)c1ccccc1)C(N)=O` [Compound 9H] (Bz-Ala-Arg-Ala-NH2), the half-inhibitory concentration (IC50) under setting [1] is above 1000 nM.
On the same count and under the same terms, for `CCCC(=O)N[C@@H](C)C(=O)N[C@@H](CCCNC(=N)N)C(=O)N[C@@H](C)C(N)=O` [Compound 9C] (Butyryl-Ala-Arg-Ala-NH2) the value was below 5000 nM; for `CCC(CC)NC(=O)[C@H](CCCNC(=N)N)NC(=O)C(CC)(CC)NC(=O)C(C)C` [Compound 11B], below 1000 nM.
Consider “Ac-ARAEVHL-NH2 [Ac-7mer, Ac-ARAEVHL-NH2]”, for which the “fold decrease of binding affinity relative to Ac-10mer” value (ratio vs Ac-10mer) is 10. Also, the IC50 (read-out: IC50 ± SD) stood at 160 ± 30 nM. Also, the inhibition constant (Ki) (read-out: Ki ± SD) turned out to be 30 ± 10 nM.
On to `CC[C@H](NC(=O)[C@H](CCCNC(=N)N)NC(=O)C1(NC(C)=O)CCC1)C(=O)NCc1ccccc1` [Compound 8A], for which the IC50 under setting [1] is below 1000 nM.
With `CCC(CC)(NC(=O)C(C)C)C(=O)N[C@@H](CCCNC(=N)N)C(=O)NCCCCc1ccccc1` [Compound 11N], the IC50 under setting [1] is below 10000 nM.
`CC(=O)N[C@@H](C)C(=O)N[C@@H](CCCNC(=N)N)C(=O)N[C@H](C(N)=O)[C@@H](C)O` [Compound 3I] (Ac-Ala-Arg-Thr-NH2): under setting [1], the IC50 was below 1000 nM.
Consider `CC(=O)N[C@@H](C)C(=O)N[C@@H](CCCNC(=N)N)C(=O)N[C@@H](C)C(=O)N[C@@H](CCC(=O)O)C(N)=O` [Ac-4mer, Ac-ARAE-NH2] (Ac-ARAE-NH2), for which, under setting [2], the Ki is 80 ± 10 nM. The IC50 under setting [3] is 400 ± 50 nM.
As for `CCC(CC)(NC(=O)c1ccccc1)C(=O)N[C@H](CCCNC(=N)N)C(=O)NC1(C(=O)NC(c2ccccc2)c2ccccc2)CCCC1` [Compound 10J], under setting [1], the IC50 was below 10000 nM.
In the case of `CCCC[C@H](NC(=O)[C@H](C)NC(C)=O)C(=O)N[C@@H](C)C(N)=O` [Compound 2A], under setting [1], the IC50 is above 1000 nM.
With `CCC(CC)NC(=O)[C@H](C)NC(=O)[C@H](CCCNC(=N)N)NC(=O)[C@H](C)NC(C)=O` [Compound 7B], the IC50 under setting [1] is below 1000 nM.
With `CC(C)C[C@H](NC(=O)[C@H](Cc1c[nH]cn1)NC(=O)[C@@H](NC(=O)[C@H](CCC(=O)O)NC(=O)[C@H](C)NC(=O)[C@H](CCCNC(=N)N)NC(=O)[C@H](C)N)C(C)C)C(=O)N[C@@H](CCCNC(=N)N)C(=O)N[C@@H](CCCCN)C(=O)N[C@@H](CO)C(N)=O` [Compound H2N-10mer], the Ki under setting [2] is 7300 ± 700 nM. Also, under setting [3], the IC50 turned out to be 34000 ± 3000 nM.
